Experimental findings from patent publication US10111435B2, “Herbicidal compositions containing N-(1,3,4-oxadiazol-2-yl)-aryl carboxylic acid amides” (BAYER CROPSCIENCE AKTIENGESELLSCHAFT, priority 2013, dated 2018) are described below.

SMILES strings stand for the structures. Like-named read-outs stand apart in the source and are kept apart here.

Assay type in all cases: in vivo
Assay [1] relates to DIGSA. Kind of assay: greenhouse post-emergence herbicidal efficacy against DIGSA. On the procedure:
(§1) All trials whose results are shown were conducted in a greenhouse by the methodology specified below. The effect of the inventive herbicidal compositions was examined on the following harmful plants 14 and 21 days after application:
(§2) The harmful plant seeds were sown in pots (diameter 8 cm) with sandy loam soil and germinated under optimal conditions. The inventive herbicidal compositions or the active ingredients alone were applied post-emergence to the planted pots with a spray volume of 300 L/ha. The trial was conducted in a greenhouse under optimum growth conditions. The herbicidal effects were assessed visually by comparison of untreated and treated plants. The percentages mean: 0%=no effects, 100%=the plants die off completely). The percentages are used to calculate interactions between individual treatments and combination treatments according to S. R. Colby, Weeds 15, pages 20 to 22 (1967).
(§3) The abbreviations mean: • a.i.=active ingredient • E^C=expected value according to Colby (E^C=A+B−A×B/100) • Diff: =difference (%) of measured value from expected value (%) (measured value minus expected value)
(§4) Assessment: • measured value E is greater than E^C:->synergism (+ diff.) • measured value E equals E^C:->additive effect • measured value E is smaller than E^C:->antagonism(− diff.)

Assay [2] relates to Amaranthus retroflexus (AMARE). Briefly: greenhouse post-emergence herbicidal efficacy against AMARE. As to the method: as §1
(§5) Echinochloa crus-galli (ECHCG), Eleusine indica (ELEIN), Setaria viridis (SETVI), Amaranthus retroflexus (AMARE), Chenopodium album (CHEAL), Kochia scoparia (KCHSC), Solanum nigrum (SOLNI), Avena fatua (AVEFA), Bromus sterilis (BROST), Lolium multiflorum (LOLMU), Phalaris minor (PHAMI), Poa annua (POAAN), Galium aparine (GALAP), Matricaria inodora (MATIN) and Polygonum convolvulus (POLCO).
as §2, §3, §4

In assay [3] the test system is Eleusine indica (ELEIN). Briefly: greenhouse post-emergence herbicidal efficacy against ELEIN. The settings on record: Eleusine indica, post-emergence; for pest or weed control at […]: 2.5 g of a.i./ha; for pest or weed control at 10 g/ha: 10 g of a.i./ha; for pest or weed control at 300 g/ha / pest or weed control at 1200 g/ha: read-out: Efficacy. As to the method: as §1, §5, §2, §3, §4

The subject of assay [4] is Setaria viridis (SETVI). Kind of assay: greenhouse post-emergence herbicidal efficacy against SETVI. As to the method:
as §1, §5, §2, §3, §4

In assay [5] the test system is Echinochloa crus-galli (ECHCG). Briefly: greenhouse post-emergence herbicidal efficacy against ECHCG. On the procedure: as §1, §5, §2, §3, §4
Assay [6] concerns Chenopodium album (CHEAL). Kind of assay: greenhouse post-emergence herbicidal efficacy against CHEAL. Conditions: 400 g of a.i./ha. As to the method: as §1, §5, §2, §3, §4
Assay [7] relates to Solanum nigrum (SOLNI). Kind of assay: greenhouse post-emergence herbicidal efficacy against SOLNI. As to the method:
as §1, §5, §2, §3, §4

The mark [8] stands for this setting: 14 days after application, 400 g of a.i./ha.
[9] abbreviates: 14 days after application, 100 g of a.i./ha.
Where [10] appears, read: 21 days after application, 100 g of a.i./ha.
The mark [11] stands for this setting: 21 days after application, 400 g of a.i./ha.
Setting [12] is: 14 days after application, 10 g of a.i./ha.
[13] abbreviates: 21 days after application, 10 g of a.i./ha.
The mark [14] stands for this setting: 21 days after application, 2.5 g of a.i./ha.
The mark [15] stands for this setting: 336 h, 14 days after application.
Where [16] appears, read: 504 h, 21 days after application.
Where [17] appears, read: 14 days after application, 300 g of a.i./ha.
Setting [18] is: 14 days after application, 1200 g of a.i./ha.
Where [19] appears, read: 21 days after application, 300 g of a.i./ha.
[20] abbreviates: 21 days after application, 1200 g of a.i./ha.

On to `N#Cc1cc(Br)c(O)c(Br)c1` [bromoxynil], for which the Efficacy in assay [1] (setting [8]) is listed as 0%; in assay [1] (setting [9]), 0%; in assay [1] (setting [10]), 0%; in assay [1] (setting [11]), 0%; in assay [2] (setting [9]) it was 40%; in assay [4] (setting [8]), 0%. Moreover, the Efficacy in assay [4] (setting [9]), in assay [4] (setting [10]), in assay [4] (setting [11]), in assay [5] (setting [8]), in assay [5] (setting [9]) and in assay [5] (setting [11]) was 0% each time. The values for the Efficacy in assay [6] (14 days after application) and in assay [6] (21 days after application) were 85% and 75%, respectively. Further, the pest or weed control at 100 g/ha in assay [3] (336 h, 14 days after application, 100 g of a.i./ha) was 0%. Also, the pest or weed control at 400 g/ha in assay [3] (336 h, 14 days after application, 400 g of a.i./ha) worked out at 0%.
On to `CS(=O)(=O)c1cc(C(F)(F)F)ccc1C(=O)c1cnoc1C1CC1` [isoxaflutole], for which the Efficacy in assay [1] (setting [12]) worked out at 10%; in assay [1] (setting [13]) it was 0%; in assay [2] (setting [14]), 40%; in assay [7] (setting [13]) it was 65%; in assay [4] (setting [14]) it was 0%; in assay [4] (setting [13]), 0%. Moreover, the Efficacy in assay [5] (14 days after application, 2.5 g of a.i./ha) was 10%; in assay [5] (setting [12]), 60%; in assay [5] (setting [14]) it was 10%; in assay [5] (setting [13]) it was 60%. The figures for the pest or weed control at […] in assay [3] (setting [15]) and in assay [3] (setting [16]) were 20% and 0%, respectively. Moreover, the pest or weed control at 10 g/ha in assay [3] (setting [15]) turned out to be 60%; in assay [3] (setting [16]), 20%.
As for `O=c1[nH]c2c(c(=O)n1C1CCCCC1)CCC2` [lenacil], the Efficacy in assay [1] (setting [17]), in assay [1] (setting [18]), in assay [1] (setting [19]), in assay [1] (setting [20]), in assay [2] (setting [18]) and in assay [2] (setting [19]) was 0% each time. The Efficacy in assay [2] (setting [20]), in assay [7] (setting [17]), in assay [7] (setting [18]), in assay [7] (setting [19]), in assay [7] (setting [20]) and in assay [4] (setting [17]) was 0% throughout. Further, the Efficacy in assay [4] (setting [18]), in assay [4] (setting [19]), in assay [4] (setting [20]), in assay [5] (setting [17]), in assay [5] (setting [18]) and in assay [5] (setting [19]) was 0% each time. Moreover, the Efficacy in assay [5] (setting [20]) stood at 0%. Further, the pest or weed control at 300 g/ha in assay [3] (336 h) and in assay [3] (504 h) was 0% in each case. For the same compound, the pest or weed control at 1200 g/ha in assay [3] (336 h) and in assay [3] (504 h) was 0% in each case.
